Activity calls are given as the source filed them. Rule as the data show it: actives have a measured IC50 and inactives only a lower limit.

For the assay, the target named is Envelope glycoprotein gp160 (Human immunodeficiency virus 1, UniProt Q6QLK5). The experiment in a line: inhibitors of HIV fusion peptide binding, primary screen, biochemical, uHTS, fluorescence dequenching (AID 1986).
Sequence of Envelope glycoprotein gp160 (Q6QLK5 whole entry, the tested form may be a part): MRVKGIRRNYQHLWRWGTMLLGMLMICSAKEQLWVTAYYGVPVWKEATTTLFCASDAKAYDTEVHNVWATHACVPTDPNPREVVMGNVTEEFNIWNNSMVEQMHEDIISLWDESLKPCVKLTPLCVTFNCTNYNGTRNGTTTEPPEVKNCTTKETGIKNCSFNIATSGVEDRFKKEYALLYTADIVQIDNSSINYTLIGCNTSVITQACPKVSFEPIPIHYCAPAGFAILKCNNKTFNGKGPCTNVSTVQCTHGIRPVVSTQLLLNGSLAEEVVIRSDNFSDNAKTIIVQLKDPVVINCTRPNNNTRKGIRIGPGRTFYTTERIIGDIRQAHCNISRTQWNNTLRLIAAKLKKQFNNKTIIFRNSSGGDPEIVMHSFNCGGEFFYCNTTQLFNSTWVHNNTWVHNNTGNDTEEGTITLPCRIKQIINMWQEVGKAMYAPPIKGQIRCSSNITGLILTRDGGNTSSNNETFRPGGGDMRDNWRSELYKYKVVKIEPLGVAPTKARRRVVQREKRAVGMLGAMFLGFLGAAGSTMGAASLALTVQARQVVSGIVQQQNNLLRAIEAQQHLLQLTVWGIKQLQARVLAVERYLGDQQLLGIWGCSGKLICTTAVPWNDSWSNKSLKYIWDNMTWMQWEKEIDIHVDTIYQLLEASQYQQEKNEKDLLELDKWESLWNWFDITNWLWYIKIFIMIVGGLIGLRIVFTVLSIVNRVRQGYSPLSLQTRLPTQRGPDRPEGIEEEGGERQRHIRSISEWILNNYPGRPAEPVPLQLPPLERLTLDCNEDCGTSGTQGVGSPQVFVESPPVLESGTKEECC
Regarding `COc1ccccc1N1N=C(C(=O)c2ccccc2)C2C(=O)N(c3ccc(Br)cc3)C(=O)C21` (stereo not drawn), the 50% inhibitory concentration (IC50) (in general, the point on the concentration scale where inhibition reaches its midpoint) is 14.6 µM (active). The result for `COc1cc(/C=C2\S/C(=N\c3ccccc3)N(CCc3c[nH]c4ccccc34)C2=O)ccc1OC(C)C(=O)O` (stereo not drawn) reads 16.9 µM (active). The result for `Cc1ccc(NS(=O)(=O)c2ccc(N/N=C/c3ccccc3OCC(=O)O)c([N+](=O)[O-])c2)c(C)c1` reads 13.8 µM (active).

Source of the values: ChEMBL document CHEMBL1201862, “PubChem BioAssay data set” (2004).
